Test results taken from ChEMBL document CHEMBL2321706, “Structure-activity relationship of benzodiazepine derivatives as LXXLL peptide mimetics that inhibit the interaction of vitamin D receptor with coactivators” (Bioorg Med Chem, 2013).
Calls of active or inactive are those of the source. The calls are words filed in the database; no cut-off is given here.

How the values were obtained:
Type in all cases: cell-based
[1] = target: T1, Vitamin D3 receptor (Homo sapiens) (UniProt P11473); assay: Inhibition of human recombinant GAL4N-fused VDR LBD expressed in HEK293 cells using 1,25(OH)2D3 as substrate assessed as inhibition of cofactor interaction at 30 uM after 16 to 18 hrs by luciferase reporter gene assay relative to control
T1 sequence (whole entry): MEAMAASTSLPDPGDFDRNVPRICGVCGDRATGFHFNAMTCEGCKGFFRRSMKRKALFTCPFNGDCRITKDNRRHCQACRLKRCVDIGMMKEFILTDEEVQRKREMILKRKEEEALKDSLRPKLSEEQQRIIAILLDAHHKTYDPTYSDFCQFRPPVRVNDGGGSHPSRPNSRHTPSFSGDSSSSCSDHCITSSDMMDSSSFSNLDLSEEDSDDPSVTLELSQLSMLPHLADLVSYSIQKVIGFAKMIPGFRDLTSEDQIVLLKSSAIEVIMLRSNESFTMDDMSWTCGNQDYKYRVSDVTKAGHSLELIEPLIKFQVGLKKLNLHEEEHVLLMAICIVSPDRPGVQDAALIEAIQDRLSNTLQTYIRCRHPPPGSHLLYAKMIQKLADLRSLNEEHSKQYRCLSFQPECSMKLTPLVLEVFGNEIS

Vitamin D3 receptor = target: T2, Vitamin D3 receptor (Homo sapiens, UniProt P11473); assay: Inhibition of human recombinant GAL4N-fused VDR LBD expressed in HEK293 cells using 1,25(OH)2D3 as substrate assessed as inhibition of cofactor interaction after 16 to 18 hrs by luciferase reporter gene assay
T2 sequence (P11473 whole entry): T1 sequence (whole entry)

HEK293 = assay: Cytotoxicity to human HEK293 cells at 30 uM after 16 to 18 hrs; conditions: hek293, 30 µM

| SMILES | inhibition [1] | IC50 (Vitamin D3 receptor) | Activity (HEK293) |
| --- | --- | --- | --- |
| CC(C)CCN1Cc2cc(I)ccc2N[C@@H](CC(C)C)C1=O | 30% | > 30 µM | – |
| CC(C)CCN1Cc2cc(I)c(N)cc2N[C@@H](CC(C)C)C1=O | – | 30 µM | – |
| CC(C)CCN1Cc2cc(CC(C)C)ccc2N[C@@H](CC(C)C)C1=O | 45% | > 30 µM | – |
| CCCCCc1cc2c(cc1N)N[C@@H](CC(C)C)C(=O)N(CCC(C)C)C2 | 47% | > 30 µM | – |
| CC(C)CCN1Cc2cc(/C=C/CO)ccc2N[C@@H](CC(C)C)C1=O | 27% | > 30 µM | – |
| CC/C=C/c1ccc2c(c1)CN(CCC(C)C)C(=O)[C@H](CC(C)C)N2 | inactive | – | – |
| CCOC(=O)c1ccc(-c2cc3c(cc2N)N[C@@H](CC(C)C)C(=O)N(CCC(C)C)C3)cc1 | – | 14 µM | – |
| CC(C)CCN1Cc2cc(-c3ccccc3)c(N)cc2N[C@@H](CC(C)C)C1=O | – | 24 µM | – |
| C=C(CC)c1ccc2c(c1)CN(CCC(C)C)C(=O)[C@H](CC(C)C)N2 | 32% | > 30 µM | – |
| CC(C)CCN1Cc2cc(/C=C/CCO)ccc2N[C@@H](CC(C)C)C1=O | 28% | > 30 µM | – |
| CCCCc1cc2c(cc1N)N[C@@H](CC(C)C)C(=O)N(CCC(C)C)C2 | – | 25 µM | – |
| CC(C)CCN1Cc2ccccc2N[C@@H](CC(C)C)C1=O | 29% | > 30 µM | – |
| CC(C)CCN1Cc2cc(-c3ccc(C(=O)O)cc3)c(N)cc2N[C@@H](CC(C)C)C1=O | 8% | > 30 µM | – |
| CC(C)CCN1Cc2cc(CCCCO)ccc2N[C@@H](CC(C)C)C1=O | inactive | – | – |
| CC(C)CCN1Cc2cc(CCCO)ccc2N[C@@H](CC(C)C)C1=O | 9% | > 30 µM | – |
| CC/C=C/c1cc2c(cc1N)N[C@@H](CC(C)C)C(=O)N(CCC(C)C)C2 | 48% | > 30 µM | – |
| CC(C)=Cc1cc2c(cc1N)N[C@@H](CC(C)C)C(=O)N(CCC(C)C)C2 | – | 26 µM | – |
| CCOC(=O)c1ccc(-c2cc3c(cc2N)N[C@@H](CC(C)C)C(=O)N(CCC(C)C)C3)c(OCCO)c1 | – | 20 µM | – |
| CC(C)CCN1Cc2ccc(N)cc2N[C@@H](CC(C)C)C1=O | 7% | > 30 µM | – |
| CC(C)=Cc1ccc2c(c1)CN(CCC(C)C)C(=O)[C@H](CC(C)C)N2 | inactive | – | – |
| CCC/C=C/c1cc2c(cc1N)N[C@@H](CC(C)C)C(=O)N(CCC(C)C)C2 | – | – | Toxic |
